Test results published in patent US12630563B2, “Macrocyclic RIP2-kinase inhibitors” (Oncodesign S.A., priority 2020, dated 2026).

Experiments:
[1] = target: T1, recombinant hRIPK2 protein (kinase domain aa 1-299-His-tagged) (Homo sapiens, UniProt O43353); test: RIPK2 AlphaLISA assay (displacement of bead-bound CZC-8004 from hRIPK2); assay type: binding; details: recombinant hRIPK2 kinase domain 10 nM, 2 h at 23° C.
T1 construct: kinase domain aa 1-299-His-tagged; purchased Life Technologies PR7829A
T1 sequence (O43353 1-299): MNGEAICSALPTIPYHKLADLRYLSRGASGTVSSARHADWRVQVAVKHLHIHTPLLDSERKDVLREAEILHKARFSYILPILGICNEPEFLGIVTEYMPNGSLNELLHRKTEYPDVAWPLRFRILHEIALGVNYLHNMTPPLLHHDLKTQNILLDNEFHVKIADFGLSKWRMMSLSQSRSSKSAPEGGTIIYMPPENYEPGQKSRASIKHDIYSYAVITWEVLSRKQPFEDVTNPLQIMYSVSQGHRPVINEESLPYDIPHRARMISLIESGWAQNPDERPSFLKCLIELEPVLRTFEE
Method in brief: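 His-tagged kinase domain (10 nM, as diluted) was mixed with compound (0.8% DMSO), acceptor beads bearing the probe CZC-8004 and Ni2+ donor beads. After 2 h at 23 °C, AlphaLISA signal was read. Loss of signal reflects displacement of the probe from RIPK2.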

[2] = Human protein binding free fraction (Assay A, RED plate equilibrium dialysis); assay type: in vitro ADME; details: plasma, read-out: Assay A: Human protein binding free fraction (F %)
Protocol: Human protein binding protocol: Compound was added to plasma or brain homogenate and incubated at 2 μM at 37° C. in the RED plate (Thermo n° 96009, cut-off 8000 Da) against PBS buffer. After 4 h, aliquots of plasma and buffer side were transferred to a well containing acetonitrile with an internal standard. After protein precipitation, samples were centrifuged and supernatant was injected in LC/MS/MS. Standards were prepared in the same matrix and treated as samples.
A fraction unbound (fuplasma) was determined for each plasma sample as follows: […]

[3] = Human Clint, microsomal metabolic stability (Assay B); assay type: in vitro ADME; details: pooled liver microsomes 0.5 mg/mL, 0.5 μM compound, NADPH
Protocol: Human Clint protocol: Pooled liver microsomes (Sekisui Xenotech) were diluted at 0.5 mg/mL in 50 mM phosphate buffer, pH 7.4 then pre-incubated with 0.5 μM […] for 7 min at 37° C. The reactions were initiated by adding prewarmed cofactor (0.44 mM NADPH). Aliquots of samples were taken at 0, 5, 10, 20 and 45 min and the reactions stopped by addition of cold acetonitrile containing an internal standard. Samples were centrifuged at 3000 g for 10 min at 4° C. and then supernatants were analyzed by LC/MS/MS for the amount of parent compound remaining.

hERG potassium channel = target: T2, hERG potassium channel (Homo sapiens, UniProt Q12809); test: hERG q-patch assay (Assay C, Sophion Qube automated electrophysiology); assay type: cell-based; details: read-out: Assay C: hERG q-patch inhibition IC50
T2 construct: host or cells: HEK (hERG-HEK stably transfected cell line)
T2 sequence (Q12809 whole entry): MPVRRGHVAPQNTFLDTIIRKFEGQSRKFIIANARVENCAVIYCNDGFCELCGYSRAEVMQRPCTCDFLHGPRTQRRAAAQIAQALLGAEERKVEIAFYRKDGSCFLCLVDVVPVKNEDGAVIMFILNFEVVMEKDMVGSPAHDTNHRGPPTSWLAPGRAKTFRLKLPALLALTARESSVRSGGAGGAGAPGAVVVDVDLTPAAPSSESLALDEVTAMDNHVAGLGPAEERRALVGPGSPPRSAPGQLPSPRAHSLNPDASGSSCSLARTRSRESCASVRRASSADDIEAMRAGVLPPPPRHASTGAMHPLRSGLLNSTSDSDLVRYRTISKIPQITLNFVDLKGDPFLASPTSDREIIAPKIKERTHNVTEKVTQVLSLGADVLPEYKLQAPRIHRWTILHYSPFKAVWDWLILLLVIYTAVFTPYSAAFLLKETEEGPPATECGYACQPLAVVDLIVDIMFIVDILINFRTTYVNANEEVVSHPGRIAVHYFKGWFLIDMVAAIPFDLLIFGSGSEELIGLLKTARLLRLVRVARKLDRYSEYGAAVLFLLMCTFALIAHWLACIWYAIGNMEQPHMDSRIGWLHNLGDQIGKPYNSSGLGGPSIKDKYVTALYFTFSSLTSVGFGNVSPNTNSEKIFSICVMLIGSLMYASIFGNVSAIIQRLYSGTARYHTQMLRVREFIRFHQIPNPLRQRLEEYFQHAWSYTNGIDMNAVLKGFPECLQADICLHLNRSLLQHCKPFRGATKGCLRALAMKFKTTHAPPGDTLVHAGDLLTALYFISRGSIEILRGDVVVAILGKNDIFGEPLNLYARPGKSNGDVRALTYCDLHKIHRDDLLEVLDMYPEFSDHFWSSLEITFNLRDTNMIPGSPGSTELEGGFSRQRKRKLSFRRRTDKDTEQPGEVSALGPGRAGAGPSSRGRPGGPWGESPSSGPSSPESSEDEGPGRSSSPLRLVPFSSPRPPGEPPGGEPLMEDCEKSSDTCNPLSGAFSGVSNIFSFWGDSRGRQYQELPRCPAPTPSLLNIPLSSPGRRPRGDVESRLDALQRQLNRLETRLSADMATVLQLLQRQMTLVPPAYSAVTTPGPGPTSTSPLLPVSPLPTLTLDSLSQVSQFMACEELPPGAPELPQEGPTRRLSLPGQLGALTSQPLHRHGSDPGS
Protocol: hERG q-patch assay protocol: The potential for test compound to inhibit the hERG potassium channel was determined using the Charles River ChanTest® hERG-HEK stably transfected cell line on the Sophion Qube automated electrophysiology platform. The assay was performed at room temperature and recordings of the hERG tail current from a population of cells were made using multi-hole QChips.

| Structure (SMILES) | IC50 [1] [nM] | fraction unbound at 4 h, 2 μM [2] | Assay B: Human Clint (hCl) [3] | IC50 (hERG potassium channel) [nM] |
| --- | --- | --- | --- | --- |
| CCO[C@@H]1C[C@H]2COc3ccn4ncc(c4n3)-c3cc(F)cc(c3)NCCN2C1=O [Example 17, (12R,14S)-12-ethoxy-4-fluoro-16-oxa-7,10,20,21,24-pentaazapentacyclo[15.5.2.1^2,6.0^10,^14.0^20,^23]pentacosa-1(23),2,4,6(25),17(24),18,21-heptaen-11-one] | < 10 |  |  |  |
| COc1cc2cc(c1)-c1cnn3cc(OC)c(nc13)OC[C@@H]1C[C@@H](OC)C(=O)N1CCN2 [Example 133, (12R,14S)-4,12,18-trimethoxy-16-oxa-7,10,20,21,24-pentaazapentacyclo[15.5.2. 1^2,6.0^10,^14.0^20,^23]pentacosa-1(23),2,4,6(25),17(24),18, 21-heptaen-11-one] | < 10 |  |  |  |
| [2H]C([2H])([2H])Oc1cc2cc(c1)-c1cnn3ccc(nc13)OC[C@@H]1C[C@@H](OC)C(=O)N1CCN2 [Example 52, (12R,14S)-4-(^2H3)methoxy-12-methoxy-16-oxa-7,10,20,21,24-pentaazapentacyclo[15.5.2.1^2,6.0^10,^14.0^20,^23]pentacosa-1(23),2,4,6(25),17(24),18,21-heptaen-11-one] | < 10 |  |  |  |
| COCCO[C@@H]1C[C@H]2COc3nc4c(cnn4cc3OC3CC4(COC4)C3)-c3cc(cc(OC)c3)NCCN2C1=O [Example 136, (12R,14S)-4-methoxy-12-(2-methoxyethoxy)-18-{2-oxaspiro[3.3]heptan-6-yloxy}-16-oxa-7,10,20,21,24-pentaazapentacyclo[15.5.2. 1^2,6.0^10,^14.0^20,^23]pentacosa-1(23),2,4,6(25),17(24),18,21-heptaen-11-one] | < 10 |  |  |  |
| COCCO[C@@H]1C[C@H]2COc3nc4c(cnn4cc3OCC3CCO3)-c3cc(cc(OC)c3)NCCN2C1=O (stereo partly drawn) [Example 130, (12R,14S)-4-methoxy-12-(2-methoxyethoxy)-18-(oxetan-2-ylmethoxy)-16-oxa-7,10,20,21,24-pentaazapentacyclo[15.5.2. 1^2,6.0^10,^14.0^20,^23]pentacosa-1(23),2,4,6(25),17(24),18,21-heptaen-11-one] | < 10 |  |  |  |

More lines, main results first:

| IC50 [1] [nM] | fraction unbound at 4 h, 2 μM [2] | Structure (SMILES) | Assay B: Human Clint (hCl) [3] | IC50 (hERG potassium channel) [nM] |
| --- | --- | --- | --- | --- |
| < 10 | > 0.01 | CO[C@@H]1C[C@H]2COc3ccn4ncc(c4n3)-c3cc(F)cc(c3)NCCN2C1=O [Example 3, (12R,14S)-4-fluoro-12-methoxy-16-oxa-7,10,20,21,24-pentaazapentacyclo[15.5.2.1^2,6.0^10,^14.0^20,^23] pentacosa-1(23),2(25),3,5,17(24),18,21-heptaen-11-one] | ++ (++ indicates hCl between 6-18 ug/min/mg prot) | > 10000 |
| < 10 | > 0.01 | O=C1[C@H](OCCO)C[C@H]2COc3ccn4ncc(c4n3)-c3cc(F)cc(c3)NCCN12 [Example 79, (12R,14S)-4-fluoro-12-(2-hydroxyethoxy)-16-oxa-7,10,20,21,24-pentaazapentacyclo[15.5.2.1^2,6.0^1°,^14.0^2°,^23]pentacosa-1(23),2(25),3,5,17(24),18,21-heptaen-11-one] | +++ (+++ indicates hCl equal or below 5 ug/min/mg prot) | 1000 to 10000 |
| < 10 |  | CO[C@@H]1C[C@H]2COc3ccn4ncc(c4n3)-c3cc(cc(C(=O)N(C)OC)c3)NCCN2C1=O [Example 55, (12R,14S)—N,12-dimethoxy-N-methyl-11-oxo-16-oxa-7,10,20,21,24-pentaazapentacyclo[15.5.2.1^2,6.0^1°,^14.0^2°,^23]pentacosa-1(23),2,4,6(25),17(24),18,21-heptaene-4-carboxamide] | +++ (+++ indicates hCl equal or below 5 ug/min/mg prot) | > 10000 |
| < 10 |  | COc1cn2ncc3c2nc1OC[C@@H]1C[C@@H](OC)C(=O)N1CCNc1cc(F)cc-3c1 [Example 1, (12R,14S)-4-fluoro-12,18-dimethoxy-16-oxa-7,10,20,21,24-pentaazapentacyclo[15.5.2.1^2,6.0^1°,^14.0^2°,^23]pentacosa-1(23),2(25),3,5,17(24),18,21-heptaen-11-one] | +++ (+++ indicates hCl equal or below 5 ug/min/mg prot) | > 10000 |
| < 10 |  | CO[C@@H]1C[C@H]2COc3nc4c(cnn4cc3-c3cnn(C)c3)-c3cc(F)cc(c3)NCCN2C1=O [Example 67, (12R,14S)-4-fluoro-12-methoxy-18-(1-methyl-1H-pyrazol-4-yl)-16-oxa-7,10,20,21,24-pentaazapentacyclo[15.5.2.1^2,6.0^1°,^14.0^2°,^23]pentacosa-1(23),2(25),3,5,17(24), 18,21-heptaen-11-one] | +++ (+++ indicates hCl equal or below 5 ug/min/mg prot) | > 10000 |
| < 10 | > 0.01 | CO[C@@H]1C[C@H]2COc3ccn4ncc(c4n3)-c3cc(cc(C(C)=O)c3)NCCN2C1=O [Example 54, (12R,14S)-4-acetyl-12-methoxy-16-oxa-7,10,20,21,24-pentaazapentacyclo[15.5.2.1^2,6.0^1°,^14.0^2°,^23]pentacosa-1(23),2,4,6(25),17(24),18,21-heptaen-11-one] | ++ (++ indicates hCl between 6-18 ug/min/mg prot) | > 10000 |
| < 10 |  | O=C1[C@H](OC2CC2)C[C@H]2COc3ccn4ncc(c4n3)-c3cc(F)cc(c3)NCCN12 [Example 80, (12R,14S)-12-cyclopropoxy-4-fluoro-16-oxa-7,10,20,21,24-pentaazapentacyclo[15.5.2.1^2,6.0^1°,^14.0^2°,^23]pentacosa-1(23),2(25),3,5,17(24),18,21-heptaen-11-one] |  |  |
| < 10 |  | COCCO[C@@H]1C[C@H]2COc3nc4c(cnn4cc3OC)-c3cc(cc(OC(C)C)c3)NCCN2C1=O [Example 131, (12R,14S)-18-methoxy-12-(2-methoxyethoxy)-4-(propan-2-yloxy)-16-oxa-7,10,20,21,24-pentaazapentacyclo[15.5.2.1^2,6.0^10,^14.0^20,^23]pentacosa-1(23),2,4,6(25),17(24),18,21-heptaen-11-one] |  |  |
